US20080181877A1, “Method For Monitoring the Effect of Compounds on Foxc2 Expression” (LEANGENE AB, C/O CIT Ekonomiservice AB, priority 2006, published 2008)

Assays:
[1] = tested on: Foxc2 expression; assay: High through-put screening: beta-gal activity (Beta-glo kit) in Foxc2nLacZ MEFs differentiated into adipocytes; type: cell-based, mouse
Experimental: Primary MEFs from both wild type and Foxc2nLacZ knock-in mice were maintained in DMEM supplied with 10% FBS and antibiotics. For differentiation into adipocytes the MEFs were grown until confluency and then stimulated (Day 0) with a differentiation media (DMEM, 10% FBS, antibiotics, 1 uM dexamethasone, 0.5 mM isobutyl-methyl-xanthine, 10 ug/mL insulin, 20 ng/ml FGF (all from Sigma), and 1 uM rosiglitazone (Alexis)). New differentiation media was added at day 3. At day 5 the differentiation media was removed and the cells were cultured in a media containing DMEM, 10% FBS, antibiotics, 10 ug/mL insulin, 1 uM rosiglitazone, and 20 ng/ml FGF. This media was changed every second day. From day 10 the cells were kept DMEM supplied with 10% FBS and antibiotics for 24 hours as a wash out period before initiating the experiments.
Foxc2nLacZ MEFs were plated onto gelatine coated 96 well plates. Differentiation was initialized after confluence according to protocol. […] After a wash out period for 24 hours the cells were subjected to different compounds for the indicated time points and subsequently induction of β-gal enzyme activity was measured using the Beta-glo kit (Promega) and a luminometric plate reader. Confluent cells differentiated into adipocytes were detected by increased X-gal staining (FIG. 5a-d), Foxc2nLacZ protein levels increased transiently during the differentiation process. […]

[2] = tested on: Foxc2 expression; assay: Monitoring Foxc2 expression in MEFs by X-gal staining; type: cell-based, mouse; conditions: acute treatment; MEFs from heterozygous Foxc2nLacZ E13.5 embryos
Experimental: FIG. 4 specifies the expression of Foxc2 during adipocyte differentiation of mouse embryonic fibroblasts (MEFs), which were isolated from Foxc2nLacZ±E13.5 embryos as well as wt littermates as control. The MEFs were treated with adipocyte differentiation mix (0.5 mM IBMX, 0.25 μM Dex and 10 μg/mL insulin) and X-gal stained at different time points after start of differentiation. Expression of Foxc2 increases during the course of adipocyte differentiation as judge by increasing β-galactosidase activity.
MEFs were isolated from E13.5 embryos from Foxc2nLacZ±heterozygous intercrosses and genotyped by PCR on DNA from the tail. The head, limbs and viscera were removed from embryos and the remains were minced with a razor blade and incubated in 0.25% trypsin, 0.1% EDTA for 1 h at 37° C. The cell suspension was plated in DMEM containing 10% fetal calf serum and antibiotics (100 units of penicillin and 100 μg/mL streptomycin). Once the cultures reached confluency, 1×10^6 cells were plated on 10-cm tissue culture plates (Falcon) and considered passage 0.
A cell based high-throughput screening system has been established by isolation of MEFs from heterozygous Foxc2nLacZ±E13.5 embryos as well as from wt embryos as a control.

Molecule | beta-gal activity ([1]; Foxc2nLacZ MEFs differentiated into adipocytes, 96 well plates, 50 μg per well at 0 h, acute treatment, Beta-glo kit) | levels of reporter gene over time ([1]; single dose, gene construct with in frame fusion of Foxc2 with a reporter gene) | Foxc2nLacZ protein levels (X-gal staining) [2]
CCCCCCCCCCCCCC(=O)O[C@@H]1[C@@H](C)[C@@]2(O)[C@@H](C=C(CO)C[C@]3(O)C(=O)C(C)=C[C@@H]23)[C@@H]2C(C)(C)[C@]12OC(C)=O [TPA, 12-O-tetradecanoylphorbol-13-acetate] | increase in beta-gal activity | moderate increasing of the levels of reporter gene remaining for long periods at similar levels | –
TNFα | – | – | levels could be induced
insulin: Insulin, known to be an inducer of Foxc2, may be utilized as a control | – | – | levels could be induced
